Two compounds from ChEMBL document CHEMBL1141325, “Pinpointing pseurotins from a marine-derived Aspergillus as tools for chemical genetics using a synthetic lethality yeast screen” (2007) can be followed below.

Assay [1] deals with Saccharomyces cerevisiae. Description: Cytotoxicity against wild-type Saccharomyces cerevisiae by yeast halo assay relative to control. Type of assay: functional.
In assay [2] the test system is Saccharomyces cerevisiae. The assay can be described thus: Cytotoxicity against wild-type Saccharomyces cerevisiae hof1delta mutant by yeast halo assay relative to control. The assay is classed as functional.

SMILES strings stand for the structures. Calls of active or inactive are those of the source. The rule behind the calls is not given here.

Regarding `CC/C=C\[C@H](O)[C@H](O)C1=C(C)C(=O)[C@]2(O1)C(=O)N[C@@](OC)(C(=O)c1ccccc1)[C@@H]2O`, the outcome in assay [1] and in assay [2] was inactive.
`CC/C=C\[C@H](OC)[C@H](O)C1=C(C)C(=O)[C@]2(O1)C(=O)N[C@@](OC)(C(=O)c1ccccc1)[C@@H]2O` [11-O-METHYLPSEUROTIN A]: the “inhibition zone (IZ)” value in assay [1] is 4 mm; in assay [2], 9 mm.
